From ChEMBL document CHEMBL4265910, “(E)-N-Aryl-2-oxo-2-(3,4,5-trimethoxyphenyl)acetohydrazonoyl cyanides as tubulin polymerization inhibitors: Structure-based bioisosterism design, synthesis, biological evaluation, molecular docking and in silico ADME prediction” (Bioorg Med Chem Lett, 2018)

What was measured:
HepG2 [1] = assay: Antiproliferative activity against human HepG2 cells after 72 hrs by MTT assay; format: functional, cell-based; settings: HepG2, 72 h
MCF7 [2] = assay: Antiproliferative activity against human MCF7 cells after 72 hrs by MTT assay; format: functional, cell-based; settings: MCF7, 72 h
A549 = assay: Antiproliferative activity against human A549 cells; format: functional, cell-based
HT-29 = assay: Antiproliferative activity against human HT-29 cells; format: functional, cell-based
CHL-1 = assay: Antiproliferative activity against human CHL-1 cells; format: functional, cell-based
MCF7 [3] = assay: Antiproliferative activity against human MCF7 cells; format: functional, cell-based
A2780S = assay: Antiproliferative activity against human A2780S cells; format: functional, cell-based
HepG2 [4] = assay: Antiproliferative activity against human HepG2 cells; format: functional, cell-based
SK-OV-3 = assay: Antiproliferative activity against human SKOV3 cells; format: functional, cell-based
HCT-116 = assay: Antiproliferative activity against human HCT116 cells after 72 hrs by MTT assay; format: functional, cell-based; settings: HCT-116, 72 h
HeLa = assay: Antiproliferative activity against human HeLa cells after 72 hrs by MTT assay; format: functional, cell-based
DU-145 = assay: Antiproliferative activity against human DU145 cells after 72 hrs by MTT assay; format: functional, cell-based; settings: DU-145, 72 h
B16-F10 = assay: Antiproliferative activity against mouse B16F10 cells after 72 hrs by MTT assay; format: functional, cell-based; settings: B16-F10, 72 h
[5] = Antiproliferative activity against human HCT8/T cells after 72 hrs by MTT assay; format: functional, cell-based; settings: HCT-8, 72 h
MDA-MB-231 = assay: Antiproliferative activity against human MDA-MB-231 cells after 72 hrs by MTT assay; format: functional, cell-based; settings: MDA-MB-231, 72 h
HepG2 [6] = assay: Cell cycle arrest in human HepG2 cells assessed as accumulation at S phase at 0.5 uM after 24 hrs by RNase A/propidium iodide staining-based flow cytometric analysis (reference value: 28.30%); format: functional
Sus scrofa = species on record: Sus scrofa; assay: (§1) Inhibition of tubulin polymerization in porcine brain assessed as disruption of tubulin assembly by spectrophotometric analysis
[7] = as §1; parameters: species or system Sus scrofa
HepG2 [8] = assay: Cell cycle arrest in human HepG2 cells assessed as accumulation at G2/M phase after 24 hrs by RNase A/propidium iodide staining-based flow cytometric analysis; format: functional
HepG2 [9] = assay: Cell cycle arrest in human HepG2 cells assessed as accumulation at G1 phase at 0.25 uM after 24 hrs by RNase A/propidium iodide staining-based flow cytometric analysis (reference value: 50.61%); format: functional
HepG2 [10] = assay: Cell cycle arrest in human HepG2 cells assessed as accumulation at G2/M phase at 0.5 uM after 24 hrs by RNase A/propidium iodide staining-based flow cytometric analysis (reference value: 21.09%); format: functional
HepG2 [11] = assay: Cell cycle arrest in human HepG2 cells assessed as accumulation at G2/M phase at 0.25 uM after 24 hrs by RNase A/propidium iodide staining-based flow cytometric analysis (reference value: 21.09%); format: functional
HepG2 [12] = assay: Cell cycle arrest in human HepG2 cells assessed as accumulation at G1 phase at 0.5 uM after 24 hrs by RNase A/propidium iodide staining-based flow cytometric analysis (reference value: 50.61%); format: functional
HepG2 [13] = assay: Cell cycle arrest in human HepG2 cells assessed as accumulation at S phase at 0.25 uM after 24 hrs by RNase A/propidium iodide staining-based flow cytometric analysis (reference value: 28.30%); format: functional

CCOc1ccccc1N/N=C(\C#N)C(=O)c1cc(OC)c(OC)c(OC)c1
IC50 (HepG2 [1]): > 10000 nM
IC50 (MCF7 [2]): > 10000 nM

COc1ccc(N/C=C(\C#N)C(=O)c2cc(OC)c(OC)c(OC)c2)cc1
IC50 (A549): 2090 nM
IC50 (HT-29): 1280 nM
IC50 (CHL-1): 1220 nM
IC50 (MCF7 [3]): 1840 nM
IC50 (A2780S): 1880 nM
IC50 (HepG2 [4]): 1200 nM
IC50 (HepG2 [1]): 1380 nM
IC50 (SK-OV-3): 1270 nM
IC50 (MCF7 [2]): 1930 nM

COc1cc2c(c(OC)c1OC)-c1ccc(OC)c(=O)cc1[C@@H](NC(C)=O)CC2 [COLCHICINE]
IC50 (HCT-116): 26.2 nM
IC50 (HeLa): 8.89 nM
IC50 (DU-145): 3.45 nM
IC50 (B16-F10): 44.2 nM
IC50 [5]: 227 nM
IC50 (MDA-MB-231): 77.6 nM

COc1cc(C(=O)/C(C#N)=N/Nc2ccccc2)cc(OC)c1OC
IC50 (HepG2 [1]): 5190 nM
IC50 (MCF7 [2]): 6380 nM

COc1ccc(N/N=C(\C#N)C(=O)c2cc(OC)c(OC)c(OC)c2)cc1O
IC50 (HCT-116): 810 nM
IC50 (HeLa): 81 nM
IC50 (DU-145): 77 nM
Activity (HepG2 [6]): 5.43%
inhibition (Sus scrofa): Dose-dependent effect
IC50 [7]: 900 nM
Activity (HepG2 [8]): Dose-dependent effect
IC50 (B16-F10): 2110 nM
IC50 [5]: 3960 nM
Activity (HepG2 [9]): 4.09%
Activity (HepG2 [10]): 94.12%
IC50 (MDA-MB-231): 720 nM
IC50 (HepG2 [1]): 320 nM
Activity (HepG2 [11]): 78.89%
IC50 (MCF7 [2]): 260 nM
Activity (HepG2 [12]): 0.45%
Activity (HepG2 [13]): 17.01%

COc1cc(C(=O)/C(C#N)=N/Nc2ccc(C)cc2)cc(OC)c1OC
IC50 (HCT-116): 870 nM
IC50 (HeLa): 310 nM
IC50 (DU-145): 98 nM
IC50 (B16-F10): 2230 nM
IC50 [5]: 7640 nM
IC50 (MDA-MB-231): 2240 nM
IC50 (HepG2 [1]): 610 nM
IC50 (MCF7 [2]): 430 nM

COc1cc(C(=O)/C(C#N)=N/Nc2ccc(C(F)(F)F)cc2)cc(OC)c1OC
IC50 (HepG2 [1]): 2680 nM
IC50 (MCF7 [2]): 3020 nM

COc1cc(C(=O)/C(C#N)=N/Nc2ccc([N+](=O)[O-])cc2)cc(OC)c1OC
IC50 (HepG2 [1]): > 10000 nM
IC50 (MCF7 [2]): > 10000 nM

COc1cccc(N/N=C(\C#N)C(=O)c2cc(OC)c(OC)c(OC)c2)c1
IC50 (HepG2 [1]): 6460 nM
IC50 (MCF7 [2]): 8820 nM

COc1cc(C(=O)/C(C#N)=N/Nc2ccccc2F)cc(OC)c1OC
IC50 (HepG2 [1]): 2100 nM
IC50 (MCF7 [2]): 1690 nM

COc1cc(C(=O)/C(C#N)=N/Nc2cccc(C)c2)cc(OC)c1OC
IC50 (HepG2 [1]): 6110 nM
IC50 (MCF7 [2]): 5890 nM

COc1ccc(N/N=C(\C#N)C(=O)c2cc(OC)c(OC)c(OC)c2)cc1
IC50 (HCT-116): 3190 nM
IC50 (HeLa): 220 nM
IC50 (DU-145): 120 nM
IC50 (B16-F10): 3260 nM
IC50 [5]: 4620 nM
IC50 (MDA-MB-231): 2460 nM
IC50 (HepG2 [1]): 440 nM
IC50 (MCF7 [2]): 280 nM

CCOc1ccc(N/N=C(\C#N)C(=O)c2cc(OC)c(OC)c(OC)c2)cc1
IC50 (HepG2 [1]): 6620 nM
IC50 (MCF7 [2]): 7010 nM

COc1cc(C(=O)/C(C#N)=N/Nc2ccc(F)cc2)cc(OC)c1OC
IC50 (HepG2 [1]): 9710 nM
IC50 (MCF7 [2]): 9840 nM

COc1cc(C(=O)/C(C#N)=N/Nc2ccc(Cl)cc2Cl)cc(OC)c1OC
IC50 (HepG2 [1]): > 10000 nM
IC50 (MCF7 [2]): > 10000 nM

COc1cc(N/N=C(\C#N)C(=O)c2cc(OC)c(OC)c(OC)c2)cc(OC)c1OC
IC50 (HepG2 [1]): > 10000 nM
IC50 (MCF7 [2]): > 10000 nM
